Legend:
Caco-2 cell monolayer = assay: TEER measurement on the Caco-2 cell monolayer; assay type: cell-based, human; settings: for decrease in TEER: Caco-2 monolayer, during 3 h permeation experiment; for TEER regained in comparison to initial values: after cell washing and incubating with MEM
Method: Permeation studies on the Caco-2 cell monolayer were executed as described previously.[23] Caco-2 cells at a density of 0.6 × 10^5 cells/cm^2 were seeded onto 24-well plates with ThinCert inserts (pore-size: 400 μm, Greiner Bio-One, Kremsmünster, Austria). Cells were cultured in MEM containing 20% FCS in an atmosphere of 5% CO2 and 95% humidity at 37 °C. The medium was renewed every other day for 21 days. For permeation studies, only cell monolayers showing a transepithelial electrical resistance (TEER) in the range of 300–500 Ω cm^2 were applied, which were determined with an EVOM instrument. TEER was also determined at time point 3 h representing the end of the permeation experiment and after 24 and 48 h to confirm monolayer integrity. Before the start of the experiment, cells were washed with PBS. Thereafter, 500 μL of MEM without FCS was transferred to the donor chamber and 1000 μL of the same medium was transferred to an accepter chamber.

[1] = Quantification of −SH content with Ellman's reagent; assay type: physicochemical
Method: Per-6-thiolated α-CD was assessed for the amount of thiol by using Ellman’s reagent.[16] The calibration curve was established using L-cysteine.

[2] = Stability of −SH groups toward oxidation at different pH; assay type: physicochemical
Method: Furthermore, the stability of the thiolated CD was measured under different pH. In short, per-6-thiolated α-CD (0.25% m/v) was hydrated in water, and pH was adjusted to 4 and 5 with acetate buffer (50 mM), to 6 with phosphate buffer (50 mM), and to 7.2 with Tris buffer (50 mM). Test samples were kept under continuous stirring at 37 °C. After specific time intervals, aliquots of 500 μL were taken. Any further reaction was quenched by adding 50 μL of 1 M HCl to each aliquot.[18] Sulfhydryl groups were quantified using Ellman’s reagent.

[3] = tested on: human colorectal carcinoma (Caco-2) cells; assay: Resazurin cytotoxicity assay on Caco-2 cells; assay type: cell-based; settings: 0.5% (m/v), within 24 h
Method: (§1) The impact of per-6-thiolated α-CD on viability of human colorectal carcinoma (Caco-2) cells was evaluated by resazurin assay to confirm the safety of the newly synthesized oligomer. For this purpose, Caco-2 cells were obtained from the European Collection of Cell Cultures (Salisbury, UK). Caco-2 cells at a density of 2.5 × 10^4 cells/well were suspended in 500 μL of MEM and seeded to a 24-well plate. The plate was incubated at an atmosphere of CO2 (5%) and relative humidity (95%) at 37 °C for 2 weeks. During this culture period, the medium was replaced on alternative days.
(§2) Toxicity assay was performed to investigate the cytotoxic potential of per-6-thiolated α-CD by quantifying resorufin formed by the reduction of resazurin. On the day of the experiment, cells of around 80% confluency were washed two times with preheated 10 mM PBS pH 7.4. The oligomer solutions (500 μL) of per-6-thiolated and unmodified α-CD (0.5% m/v) in white MEM, 4% (v/v) Triton X-100 acting as a negative control and white MEM acting as a positive control were transferred to the cell culture wells.
(§3) After 3 and 24 h, test samples were withdrawn, and the cells were washed two times with preheated PBS. In the following, 500 μL of resazurin (2.2 μM) solution was added, and cells were further incubated for 3 h. Aliquots (100 μL) were inserted to a 96-well plate, and the fluorescence was analyzed at emission and excitation wavelength of 590 and 540 nm utilizing a microplate reader (M-200 spectrometer; Tecan infinite, Austria). Cell viability of cells was measured using eq 1 [drawing 1] 1

[4] = Resazurin cytotoxicity assay on Caco-2 cells; assay type: cell-based, human; settings: human, read-out: cell viability
Method: as §1, §2, §3

[5] = Phase-solubility study with FUR (apparent stability constant KC); assay type: physicochemical; settings: aqueous solution, room temperature, 1:1 complex
Method: The suspension was homogenized at room temperature using a thermomixer (Thermomixer C, Eppendorf, Austria) at 750 rpm until equilibrium in solubility was reached (3–4 days).

[6] = pKa of −SH groups by photometric method; assay type: physicochemical; settings: 0.001 M HCl containing 0.1 M NaCl, titrated with 0.01% NaOH; absorbance at 242 nm, 0.1% m/v
Method: As the stability of sulfhydryl groups depends on thiolate anions concentration, the pKa value of −SH groups on per-6-thiolated α-CD was determined via an established photometric method with some modifications.[17] Briefly, ionic strength was stabilized by dissolving per-6-thiolated α-CD (0.1% m/v) in 0.001 M HCl containing 0.1 M NaCl. Increasing volumes of 0.01% NaOH were added to per-6-thiolated CD solutions that were continuously measured regarding pH and absorbance at 242 nm. The pKa was determined by plotting pH versus −log[(Amax – Ai)/Ai].

Row | amount of −S–S– groups on the CD backbone [1] [µmol/g] | amount of −SH groups on the CD backbone ([1]; Ellman's reagent) [µmol/g] | −SH groups oxidized ([2]; after 3 h at pH 5, 37 °C) [%] | stability of −SH groups ([2]; pH 4, 37 °C, 0.25% m/v) | stability of −SH groups ([2]; pH ≤ 4) | apparent stability constant (KC) with FUR [5] [M^–1] | pKa [6] | Compound | decrease in TEER (Caco-2 cell monolayer) | TEER regained in comparison to initial values (Caco-2 cell monolayer; after 24 h) [%] | TEER regained in comparison to initial values (Caco-2 cell monolayer; after 48 h) [%] | cytotoxicity [3] | viability at 3 h, 0.5 % (m/v) ([4]; after 3 h) [%] | viability at 24 h, 0.5 % (m/v) ([4]; after 24 h) [%]
1 | 786 ± 139 | 4244 ± 402 | 15 | stable | stable | 1090.9 | 8.1 | O[C@@H]1[C@@H](O)[C@H]2O[C@H]3[C@H](O)[C@@H](O)[C@@H](O[C@H]4[C@H](O)[C@@H](O)[C@@H](O[C@H]5[C@H](O)[C@@H](O)[C@@H](O[C@H]6[C@H](O)[C@@H](O)[C@@H](O[C@H]7[C@H](O)[C@@H](O)[C@@H](O[C@@H]1[C@@H](CS)O2)O[C@@H]7CS)O[C@@H]6CS)O[C@@H]5CS)O[C@@H]4CS)O[C@@H]3CS [per-6-thiolated α-CD, per-6-thiolated α-cyclodextrin] | up to 28% | 82 | 90 | not cytotoxic | > 88 | > 88
2 |  |  |  |  |  | 1050.7 |  | OC[C@H]1O[C@@H]2O[C@H]3[C@H](O)[C@@H](O)[C@@H](O[C@H]4[C@H](O)[C@@H](O)[C@@H](O[C@H]5[C@H](O)[C@@H](O)[C@@H](O[C@H]6[C@H](O)[C@@H](O)[C@@H](O[C@H]7[C@H](O)[C@@H](O)[C@@H](O[C@H]1[C@H](O)[C@H]2O)O[C@@H]7CO)O[C@@H]6CO)O[C@@H]5CO)O[C@@H]4CO)O[C@@H]3CO [α-CD, α-cyclodextrin, reference compound] | ~15% |  |  |  |  | 
